Results: paper PMC7324975 (BMC Cancer, 2020)

Experiments:
CT26 cells = test: WST1 cell viability assay; format: cell-based, mice; details: 24 h; for anti-tumor efficacy (cell viability), single use: C: 0 ~ 160 μM, R: 12.5 ~ 200 μM; for IC50: Mus musculus, WST1
Experimental: The mice colon cancer cell line, CT26, was provided by Johnpro Biotech (Taipei, Taiwan). The cells were maintained in ATCC-formulated RPMI-1640 Medium containing 10% heat-inactivated fetal bovine serum (FBS) and 1% antibiotic-antimycotic (GM) in a humidified incubator with 5% CO2 at 37 °C. […] The cell viability was determined through WST1 assay (Roche, Germany) after the 24-h treatment.

Caspase-3 = test: Western blot of Caspase-3 cleavage form; format: cell-based, mice; details: CT26 cells, 3 h, single agents
Experimental: The CT26 cell lysates from the variety of the treatments were prepared using RIPA lysis buffer for immunoblotting of Cyclin D1 (Cell Signaling Technology, #92G2), Cyclin A (Santa Cruz Biotechnology, #sc-271,645), Hsp70 (Santa Cruz Biotechnology, #SC24), Caspase-3, and cleavage form of Caspase-3 (Cell Signaling Technology, #9662S). Western blot analysis was performed as previously reported.

Row | SMILES | anti-tumor efficacy (cell viability), single use (CT26 cells) | IC50 (CT26 cells) [µM] | cleavage form of Caspase-3 (Caspase-3)
1 | COc1cc(/C=C/C(=O)CC(=O)/C=C/c2ccc(O)c(OC)c2)ccc1O [Curcumin, curcumin] | dose-dependent | 26.8 ± 1.06 | increased
2 | Oc1ccc(/C=C/c2cc(O)cc(O)c2)cc1 [Resveratrol, resveratrol] | dose-dependent | 88.8 ± 1.07 | increased
